Data: ChEMBL document CHEMBL5032500, “Adenosine A2AR/A1R Antagonists Enabling Additional H3R Antagonism for the Treatment of Parkinson's Disease” (J Med Chem, 2021)

What was measured:
Histamine H3 receptor = Histamine H3 receptor (Homo sapiens, UniProt Q9Y5N1); experiment: Displacement of [3H] N-alpha methylhistamine from human recombinant histamine H3 receptor expressed in HEK293 cells measured after 90 mins; assay type: cell-based
Adenosine receptor A2a [1] = target: T1, Adenosine receptor A2a (Homo sapiens, UniProt P29274); experiment: Displacement of [3H]MSX-2 from human recombinant adenosine A2A receptor expressed in CHO cells by liquid scintillation counting analysis; assay type: cell-based
Adenosine receptor A3 = target: T2, Adenosine receptor A3 (Homo sapiens, UniProt P0DMS8); experiment: Displacement of [3H]PSB-11 from human recombinant adenosine A3 receptor expressed in CHO cells by liquid scintillation counting analysis; assay type: cell-based
T2 sequence (P0DMS8 whole entry): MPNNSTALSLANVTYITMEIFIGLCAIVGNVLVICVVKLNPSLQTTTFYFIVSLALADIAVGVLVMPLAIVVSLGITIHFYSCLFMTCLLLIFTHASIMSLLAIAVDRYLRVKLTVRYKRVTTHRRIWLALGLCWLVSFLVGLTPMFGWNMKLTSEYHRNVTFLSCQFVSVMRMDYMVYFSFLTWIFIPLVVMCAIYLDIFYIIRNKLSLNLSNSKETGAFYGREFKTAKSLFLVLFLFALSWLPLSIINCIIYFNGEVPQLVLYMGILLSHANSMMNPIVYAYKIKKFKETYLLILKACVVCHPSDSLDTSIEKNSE

Adenosine receptor A1 [2] = target: T3, Adenosine receptor A1 (Homo sapiens, UniProt P30542); experiment: Displacement of [3H]CCPA from human recombinant adenosine A1 receptor expressed in CHO cells by liquid scintillation counting analysis; assay type: cell-based
T3 sequence (P30542 whole entry): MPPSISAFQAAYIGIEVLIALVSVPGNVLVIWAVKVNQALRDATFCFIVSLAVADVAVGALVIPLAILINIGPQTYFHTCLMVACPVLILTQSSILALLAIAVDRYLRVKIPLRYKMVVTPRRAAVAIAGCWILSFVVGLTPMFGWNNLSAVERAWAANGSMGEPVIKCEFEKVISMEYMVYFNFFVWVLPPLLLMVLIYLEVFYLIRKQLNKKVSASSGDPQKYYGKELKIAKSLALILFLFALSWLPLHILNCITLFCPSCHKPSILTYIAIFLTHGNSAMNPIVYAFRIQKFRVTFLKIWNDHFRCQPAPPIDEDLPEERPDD

Adenosine receptor A2b [3] = target: T4, Adenosine receptor A2b (Homo sapiens, UniProt P29275); experiment: Displacement of [3H]PSB-603 from human recombinant adenosine A2B receptor expressed in CHO cells by liquid scintillation counting analysis; assay type: cell-based
T4 sequence (P29275 whole entry): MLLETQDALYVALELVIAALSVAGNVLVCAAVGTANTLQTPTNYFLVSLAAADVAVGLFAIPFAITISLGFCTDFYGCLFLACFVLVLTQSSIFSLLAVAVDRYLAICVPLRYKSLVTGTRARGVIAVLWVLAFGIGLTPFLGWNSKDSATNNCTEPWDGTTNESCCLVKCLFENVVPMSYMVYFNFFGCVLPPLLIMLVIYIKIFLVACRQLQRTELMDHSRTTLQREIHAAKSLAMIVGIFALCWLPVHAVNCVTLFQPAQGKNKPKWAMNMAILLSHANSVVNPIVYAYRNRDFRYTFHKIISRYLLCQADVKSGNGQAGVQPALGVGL

[4] = target: T5, Adenosine receptor A3 (Homo sapiens) (UniProt P0DMS8); experiment: Displacement of [3H]PSB-11 from human recombinant adenosine A3 receptor expressed in CHO cells at 1 uM by liquid scintillation counting analysis; assay type: cell-based
T5 sequence (whole entry): T2 sequence (P0DMS8 whole entry)

[5] = target: T6, Adenosine receptor A2b (Homo sapiens) (UniProt P29275); experiment: Displacement of [3H]PSB-603 from human recombinant adenosine A2B receptor expressed in CHO cells at 1 uM by liquid scintillation counting analysis; assay type: cell-based
T6 sequence (whole entry): T4 sequence (P29275 whole entry)

[6] = target: T7, Adenosine receptor A1 (Homo sapiens) (UniProt P30542); experiment: Displacement of [3H]CCPA from human recombinant adenosine A1 receptor expressed in CHO cells at 1 uM by liquid scintillation counting analysis; assay type: cell-based
T7 sequence (whole entry): T3 sequence (P30542 whole entry)

Adenosine receptor A2a [7] = target: T1, Adenosine receptor A2a; experiment: Displacement of [3H]MSX-2 from human recombinant adenosine A2A receptor expressed in CHO cells at 1 uM by liquid scintillation counting analysis; assay type: cell-based
Adenosine receptor A2b [8] = target: T4, Adenosine receptor A2b; experiment: Binding affinity to human recombinant adenosine A2B receptor expressed in CHO cells using [3H]PSB-603 by functional activity assay; assay type: cell-based
Adenosine receptor A1 [9] = target: T3, Adenosine receptor A1; experiment: Binding affinity to human recombinant adenosine A1 receptor expressed in CHO cells using [3H]CCPA by functional activity assay; assay type: cell-based
SH-SY5Y = experiment: Cytotoxicity against human SH-SY5Y cells assessed as remaining cell viability at 1000 nM incubated for 24 hrs; assay type: functional

Chain of Histamine H3 receptor (Q9Y5N1 whole entry): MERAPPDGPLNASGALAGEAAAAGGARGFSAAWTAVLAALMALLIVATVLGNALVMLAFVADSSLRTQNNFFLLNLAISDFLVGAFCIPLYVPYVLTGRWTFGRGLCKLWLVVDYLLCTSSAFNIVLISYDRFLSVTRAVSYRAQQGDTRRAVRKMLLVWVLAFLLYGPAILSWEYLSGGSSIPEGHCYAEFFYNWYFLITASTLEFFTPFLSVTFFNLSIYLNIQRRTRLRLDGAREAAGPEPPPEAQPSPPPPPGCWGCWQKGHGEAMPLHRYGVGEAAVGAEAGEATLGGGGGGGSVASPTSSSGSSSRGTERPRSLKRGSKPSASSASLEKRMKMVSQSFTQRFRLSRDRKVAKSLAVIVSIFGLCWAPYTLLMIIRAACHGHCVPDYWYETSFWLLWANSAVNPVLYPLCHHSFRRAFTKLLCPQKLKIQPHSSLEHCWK
T1 sequence (P29274 whole entry): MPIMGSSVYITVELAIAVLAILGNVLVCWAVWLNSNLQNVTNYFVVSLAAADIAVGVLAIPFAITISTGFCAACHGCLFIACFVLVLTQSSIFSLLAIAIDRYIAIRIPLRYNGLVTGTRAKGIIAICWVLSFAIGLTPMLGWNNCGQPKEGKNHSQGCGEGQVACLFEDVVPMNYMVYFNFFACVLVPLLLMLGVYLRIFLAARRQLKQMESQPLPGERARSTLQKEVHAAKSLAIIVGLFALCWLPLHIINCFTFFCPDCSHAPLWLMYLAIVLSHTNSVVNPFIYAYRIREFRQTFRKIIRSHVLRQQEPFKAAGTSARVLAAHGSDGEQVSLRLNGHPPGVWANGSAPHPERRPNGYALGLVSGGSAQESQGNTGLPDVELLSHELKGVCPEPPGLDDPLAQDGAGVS

| SMILES | Ki (Histamine H3 receptor) | Ki (Adenosine receptor A2a [1]) | Ki (Adenosine receptor A3) | Ki (Adenosine receptor A1 [2]) | Ki (Adenosine receptor A2b [3]) | inhibition [4] | inhibition [5] | inhibition [6] | inhibition (Adenosine receptor A2a [7]) | EC50 (Adenosine receptor A2b [8]) | EC50 (Adenosine receptor A1 [9]) | Activity (SH-SY5Y) | inhibition (Adenosine receptor A2a [7]; filed as antagonist) | inhibition ([4]; filed as antagonist) | inhibition ([6]; filed as antagonist) |
| --- | --- | --- | --- | --- | --- | --- | --- | --- | --- | --- | --- | --- | --- | --- | --- |
| Nc1nc(-c2ccccc2)c2c(n1)-c1cc(OCCCN3CCCC3)ccc1C2=O | 17 nM | 6.24 nM | 199 nM | 12.6 nM | 47.5 nM |  |  |  |  |  |  |  |  |  |  |
| Nc1nc(-c2ccccc2)c2c(n1)-c1ccc(OCCCN3CCCCC3)cc1C2=O | 36 nM | 142 nM | > 1000 nM | 367 nM | 114 nM | 12% |  |  |  |  |  |  |  |  |  |
| Nc1nc(-c2ccccc2)c2c(n1)-c1ccc(OCCCN3CCCC3)cc1C2=O | 31 nM | 104 nM | 846 nM | 129 nM | 180 nM |  |  |  |  |  |  |  |  |  |  |
| Nc1nc(-c2ccccc2)c2c(n1)-c1ccc(OCCCN3CCCCC3)cc1C2 | 2.3 nM | > 1000 nM | > 1000 nM | > 1000 nM | > 1000 nM | 39% | 34% | 24% | 34% |  |  |  |  |  |  |
| Nc1nc(-c2ccccc2)c2c(n1)-c1cc(OCCN3CCOCC3)ccc1C2=O |  |  | 430 nM |  |  |  |  |  |  | 230 nM | 48 nM |  |  |  |  |
| O=C(c1ccc(OCCCc2c[nH]cn2)cc1)C1CC1 |  |  |  |  |  | 3% | 8% | -6% | -1% |  |  |  |  |  |  |
| O=C(c1ccc(OCCCc2cnc[nH]2)cc1)C1CC1 [CIPROXIFAN] |  | > 1000 nM | > 1000 nM | > 1000 nM | > 1000 nM |  |  |  |  |  |  |  |  |  |  |
| Nc1nc(-c2ccccc2)c2c(n1)-c1ccc(OCCCN3CCCC3)cc1C2 | 11 nM | > 1000 nM | > 1000 nM | 828 nM | > 1000 nM | 35% | 25% |  |  |  |  | >75% | 40% |  |  |
| Nc1nc(-c2ccc(OCCCN3CCCCC3)cc2)c2c(n1)-c1ccccc1C2=O | 0.28 nM | 35.5 nM | > 1000 nM | 133 nM | 331 nM | 33% |  |  |  |  |  |  |  |  |  |
| Nc1nc(-c2ccc(OCCCN3CCCCC3)cc2)c2c(n1)-c1ccc(OCCCN3CCCCC3)cc1C2 | 0.6 nM | 941 nM | > 1000 nM | > 1000 nM | > 1000 nM |  | 13% | 23% |  |  |  |  |  | 50% |  |
| Nc1nc(-c2ccc(OCCCN3CCCCC3)cc2)c2c(n1)-c1ccc(OCCCN3CCCCC3)cc1C2=O | 0.31 nM | 203 nM | > 1000 nM | ≥ 1000 nM | > 1000 nM | 32% | 15% |  |  |  |  |  |  |  | 44% |
| Nc1nc(-c2ccc(OCCCN3CCCCC3)cc2)c2c(n1)-c1ccccc1C2 | 0.49 nM | 717 nM | > 1000 nM | 2510 nM | > 1000 nM | 24% | 28% |  |  |  |  |  |  |  |  |
| Nc1nc(-c2ccccc2)c2c(n1)-c1cc(OCCCN3CCCCC3)ccc1C2 | 4.5 nM | 4.85 nM | 231 nM | 18.7 nM | 58.1 nM |  |  |  |  |  |  | >75% |  |  |  |
| O=C(c1ccc(OCCCN2CCCCC2)cc1)C1CC1 |  | > 1000 nM | > 1000 nM | > 1000 nM | > 1000 nM | -2% | 0% | -5% | -3% |  |  |  |  |  |  |
| COCCOc1ccc(N2CCN(CCn3ncc4c3nc(N)n3nc(-c5ccco5)nc43)CC2)cc1 [PRELADENANT] |  |  | > 1000 nM |  | > 1000 nM |  |  |  |  |  |  |  |  |  |  |
